Where a name gives a salt, the structure may show the parent alone.

For series [1], the system named is Keap1 KO-mCherry cells (Hepa1). As to the kind of experiment: Cell fluorescence analysis (relative fluorescence as cell survival) after HF treatment. As to conditions: HF at various doses up to 50 nM, 48 hours. The format is cell-based. On the procedure:
(§1) WT-GFP and Keap1-mCherry Hepa1 cells were prepared in the same manner as in Mol Cell Biol., 2020 Oct 26, 40(22). The cells were maintained in Dulbecco's modified Eagle's medium (DMEM) containing 10% (v/v) fetal bovine serum and antibiotics (penicillin-streptomycin) at 37° C. and 5% CO2.
(§2) For cell fluorescence analysis, 4×10^4 WT-GFP cells and 2×10^4 Keap1-mCherry Hepa1 cells were cultured separately on day −1 in a black 96-well plate (Corning; number 3904). On day 0, HF or saline was introduced at various concentrations, and then the plate was returned to an incubator at 37° C. until day 2. The fluorescence intensities of the cells were measured using a PHERAstar FS microplate reader (BMG Labtech, Ortenberg, Germany).
(§3) HF has been reported to suppress Nrf2 accumulation in cells (FIG. 1A). To examine the tumor suppressive role of HF in Nrf2-activated tumor cells, enhanced green fluorescent protein (EGFP)-expressing wild type (WT) Hepa1 cells (hereinafter also referred to as “WT-GFP cells”) and mCherry-expressing Keap1 knockout cells (hereinafter also referred to as “Keap1 KO-mCherry cells”) were treated with HF. Both isogenic cell lines used were the same as those in Mol Cell Biol., 2020 Oct 26, 40(22). […] It has been shown in Mol Cell Biol., 2020 Oct 26, 40(22) that there is a correlation between the relative fluorescence intensity and the cell survival rate.

In the next series the test system is WT-GFP cells (Hepa1). The description is as above. The format is cell-based. The note with it: HF at various doses up to 50 nM, 48 hours. On the procedure: as §1, §2, §3
Series [2] can be described thus: Systemic side effect markers in cancer-bearing mice. Format: in vivo, Keap1^FB/FB:Kras^G12D mice. The text has this: Monocytes were isolated from the bone marrow, the spleen, and the thymus using Ficoll-Paque PREMIUM 1.084 (Cytiva 17-5446-02). The monocytes were stained with allophycocyanin-eFluor 780 conjugate anti-c-Kit (Invitrogen; Clone 2B8), Brilliant Violet 421 conjugate anti-B220 (Biolegend; Clone RA2-6B2), phycoerythrin conjugate anti-F4/80 (Biolegend; Clone BM8), fluorescein isothiocyanate conjugate anti-Ly6G (Biolegend; Clone 1A8), Brilliant Violet 421 conjugate anti-CD11b (Biolegend; Clone M1/70), fluorescein isothiocyanate conjugate anti-CD71 (eBiosciences; CloneR17217), phycoerythrin conjugate anti-Ter119 (eBiosciences; Clone TER-119), PE-Cyanine7 conjugate anti-CD4 (Invitrogen; CloneGK1.5), and allophycocyanin conjugate anti-CD8 (Biolegend; Clone S3-6.7). The dead cells were removed using propidium iodide staining. The analysis was made using FACSVerse (BD Biosciences). The data were analyzed using FlowJo software (BD Biosciences).
Because HF is slowly and continuously released from HFm through encapsulation of HF in polymer micelles, it was supposed that HFm may act as a far safer drug than HF. Thus, because the MTD of HF was 0.75 mg/kg bw, various side effect markers were examined in cancer-bearing model mice treated with 0.75 mg/kg bw of HFm and compared with those of the mice treated with the same amount of HF.
After KRAS-driven lung adenocarcinoma was grown for 17 weeks, the mice were treated with saline, HF (0.25 mg/kg), or HFm (0.25 mg/kg) every two days four times in total (FIG. 7A).

The subject of series [3] is Nrf2 protein in WT-GFP cells. Put plainly: Immunoblotting of Nrf2 protein after HF treatment. Format: cell-based. As to conditions: 50 nM HF, 0-18 hours, whole cell lysates. On the procedure:
(§4) For analyzing cultured cells, 1×10^6 WT-GFP and Keap1-mCherry Hepa1 cells were separately seeded on day −1 and treated with 50 nM HF on the next day (day 0). Whole cell lysates were prepared by lysing the cells with SDS buffer (0.25 M Tris-HCl (pH 6.8), 8% (w/v) SDS, and 20% glycerol) and collected 0, three, six, 12, and 18 hours after the HF treatment. An anti-Nrf2 antibody (Cell Signaling Technology, #12721, 1:500 dilution) and an anti-α-tubulin antibody (Sigma, T9026, 1:1000 dilution) were used.
(§5) To examine whether the selective decrease in the Keap1 KO-mCherry cells was caused by suppression of Nrf2 accumulation, Nrf2 protein was analyzed by immunoblotting at various points in time after isogenic Hepa1 cells were exposed to HF. […] The above experiment was repeated, and densitometry measurement of immunoblotting bands was conducted (FIG. 1F).
A general note: A western blot detects proteins with antibodies after separation by electrophoresis.

The test system of series [4] is Nrf2 protein in Keap1 KO-mCherry cells. As to the kind of experiment: Immunoblotting of Nrf2 protein after HF treatment. Format: cell-based. The note with it: 50 nM HF, 0-18 hours, whole cell lysates. On the procedure: as §4, §5
[5] abbreviates: 0.75 mg/kg bw iv four times, vs. HFm or saline.

Regarding `O=C(CC1NCCCC1O)Cn1cnc2cc(Br)c(Cl)cc2c1=O` (stereo not drawn) [HF, Halofuginone hydrobromide], in series [1], the “count of Keap1 KO-mCherry cells (relative fluorescence intensity)” value is given as “decreased significantly in a concentration-dependent manner”. Besides, in the series with WT-GFP cells (Hepa1), the “count of WT-GFP cells (relative fluorescence intensity)” value is listed as “did not decrease substantially”. In series [2] (0.25 mg/kg bw iv four times), the “erythrocyte count in peripheral blood” value is listed as “did not affect” and the “leukocyte count in peripheral blood” value is “decreased the leukocyte count with significance”. In series [2] (0.25 mg/kg bw iv four times, vs. other groups), the body weight changes result is “equivalent”. Moreover, in series [2] (0.75 mg/kg bw iv four times), the “atrophy of the thymus” value was “remarkable”, the “erythroblasts (Ter119+CD71+) of the spleen” value is on record as “decreased with significance”, the “erythrocytes in peripheral blood” value is “decreased” and the hematocrit levels entry is reported as “decreased”. Also, in series [2] (0.75 mg/kg bw iv four times), the “leukocyte count in peripheral blood” value was “significant decrease”, the spleen cell count entry was “decreased with significance”, the spleen weight result is “decreased with significance” and the “thymus CD4 single-positive cells (CD4+CD8-) count” value is “decreased”. Further, in series [2] (0.75 mg/kg bw iv four times), the “thymus double-negative cells (CD4-CD8-) count” value is “decreased”, the “thymus double-positive cells (CD4+CD8+) count” value is “decreased”, the “thymus total cell count” value is reported as “decreased significantly” and the “total cell count of the bone marrow” value is on record as “decreased significantly”. Besides, in series [2] (setting [5]), the “bone marrow B cells (B220+) count” value is given as “decreased significantly”, the “bone marrow macrophages (CD11b+F4/80+) count” value was “decreased significantly”, the “bone marrow neutrophils (CD11b+Ly6G+) count” value was “decreased significantly” and the “bone marrow precursor cells (c-Kit+) count” value is “decreased significantly”. Besides, the “thymus CD8 single-positive cells (CD4-CD8+)” value in series [2] (0.75 mg/kg bw iv four times, vs. saline or HFm) is “tendency towards a lower frequency”. Besides, in series [3], the Nrf2 protein level result is reported as “not detected at all the points in time”. The Nrf2 protein level entry in series [4] is given as “depleted rapidly”.

The values above are taken from patent US20260216343A1, “CONJUGATE, MICELLE AND ANTICANCER AGENT” (TOHOKU UNIVERSITY, priority 2023, published 2026).
